# Experimental data as given in PMC2864230 (Nature chemical biology, 2009).
# Key:
# ERα [1] = target: T1, ERα (Homo sapiens, UniProt P03372); assay: PI3K activation; type: cell-based; details: ERα-transfected COS7 cells; concentrations 100-fold greater than required to inhibit GPR30
# T1 sequence (P03372 1-595): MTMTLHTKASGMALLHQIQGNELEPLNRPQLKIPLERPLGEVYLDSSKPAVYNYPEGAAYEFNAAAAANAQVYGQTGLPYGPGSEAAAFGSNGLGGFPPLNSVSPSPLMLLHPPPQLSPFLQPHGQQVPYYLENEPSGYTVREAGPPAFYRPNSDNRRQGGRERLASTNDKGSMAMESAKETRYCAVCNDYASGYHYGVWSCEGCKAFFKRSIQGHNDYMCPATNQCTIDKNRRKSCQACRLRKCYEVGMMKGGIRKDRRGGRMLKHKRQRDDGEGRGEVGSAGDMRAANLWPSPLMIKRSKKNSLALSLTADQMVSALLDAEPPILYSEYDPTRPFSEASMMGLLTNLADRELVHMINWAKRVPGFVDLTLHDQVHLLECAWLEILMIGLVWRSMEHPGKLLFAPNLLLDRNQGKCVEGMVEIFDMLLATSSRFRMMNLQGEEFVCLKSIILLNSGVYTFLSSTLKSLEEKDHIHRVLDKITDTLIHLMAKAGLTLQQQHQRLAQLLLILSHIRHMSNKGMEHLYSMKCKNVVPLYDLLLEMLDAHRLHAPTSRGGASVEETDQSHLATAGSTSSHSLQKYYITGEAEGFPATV
# adult male ICR mice = assay: Mouse depression assay; type: in vivo; details: intraperitoneal
# GPR30 [2] = target: T2, GPR30 (Homo sapiens, UniProt Q99527); assay: PI3K activation; type: cell-based; details: SKBr3 cells
# ERα [3] = target: T1, ERα; assay: Competitive binding with E2-Alexa633 in COS7 cells transfected with ERα-GFP
# ERβ = ERβ (Homo sapiens, UniProt Q92731); assay: PI3K activation; type: cell-based; details: ERβ-transfected COS7 cells; concentrations 100-fold greater than required to inhibit GPR30
# GPR30 [4] = target: T2, GPR30; assay: Intracellular calcium mobilization in indo1-AM-loaded SKBr3 cells; type: cell-based; details: G15 1 μM
# GPR30 [5] = target: T2, GPR30; assay: PI3K activation; type: cell-based; details: GPR30-transfected COS7 cells
# uterine epithelia = assay: Mouse uterine estrogenicity assay; type: in vivo; details: G15 plus E2 (0.74 nmol); dose-dependent, maximal at 10-fold molar excess of G15
# T2 sequence (Q99527 whole entry): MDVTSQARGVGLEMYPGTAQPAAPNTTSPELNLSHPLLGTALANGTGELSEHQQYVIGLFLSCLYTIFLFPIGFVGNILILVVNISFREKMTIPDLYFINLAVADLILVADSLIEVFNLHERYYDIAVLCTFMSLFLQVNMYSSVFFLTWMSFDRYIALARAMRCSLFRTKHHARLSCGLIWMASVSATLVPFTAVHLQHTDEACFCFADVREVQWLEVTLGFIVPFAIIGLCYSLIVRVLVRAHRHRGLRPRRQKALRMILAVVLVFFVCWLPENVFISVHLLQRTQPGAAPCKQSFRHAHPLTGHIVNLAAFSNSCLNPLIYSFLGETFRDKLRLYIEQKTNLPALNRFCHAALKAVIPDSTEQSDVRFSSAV
# Sequence of ERβ (Q92731 whole entry, species assumed): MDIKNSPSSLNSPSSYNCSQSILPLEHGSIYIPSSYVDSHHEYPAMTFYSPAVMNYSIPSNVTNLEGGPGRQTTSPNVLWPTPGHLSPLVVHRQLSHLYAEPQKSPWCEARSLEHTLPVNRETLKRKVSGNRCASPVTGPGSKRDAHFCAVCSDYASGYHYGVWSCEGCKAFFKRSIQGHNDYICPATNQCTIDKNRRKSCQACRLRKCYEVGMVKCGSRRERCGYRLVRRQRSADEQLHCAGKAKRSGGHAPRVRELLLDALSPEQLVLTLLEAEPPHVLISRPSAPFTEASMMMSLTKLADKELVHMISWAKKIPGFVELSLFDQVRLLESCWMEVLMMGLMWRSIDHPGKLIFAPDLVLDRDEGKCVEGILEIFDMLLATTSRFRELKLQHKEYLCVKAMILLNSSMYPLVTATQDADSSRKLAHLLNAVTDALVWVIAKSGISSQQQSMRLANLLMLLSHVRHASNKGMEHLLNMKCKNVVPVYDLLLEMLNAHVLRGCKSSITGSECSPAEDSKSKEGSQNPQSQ
smiles,measurement,setting,value
"Brc1cc2c(cc1[C@@H]1Nc3ccccc3[C@@H]3C=CC[C@@H]31)OCO2 (racemic) [G15, 4-(6-Bromo-benzo[1,3]dioxol-5-yl)-3a,4,5,9b-tetrahydro-3H-cyclopenta[c]quinoline]",effect on estrogen-mediated PI3K response,ERα [1],no effect
same,effect of G15 pretreatment on the G-1 effect on immobility time,adult male ICR mice; G15 10 nmol/mouse + G-1 1 nmol/mouse,significantly attenuated
same,effect of G15 pretreatment on the E2 effect on immobility time,adult male ICR mice; G15 25 nmol/mouse + soluble E2 5 mg/kg,significantly attenuated
same,inhibition of estrogen and G-1 stimulation of PI3K,GPR30 [2],able to inhibit
same,Ki,ERα [3],> 10 µM
same,effect on estrogen-mediated PI3K response,ERβ,no effect
same,mobilization of intracellular calcium by compound alone,"GPR30 [4]; G-1 200 nM, E2 100 nM",incapable of inducing a response
same,effect of G15 exposure on subsequent calcium response to G-1 or estrogen,GPR30 [4]; then G-1 200 nM or E2 100 nM,substantially reduced the response
same,inhibition of G-1-mediated activation of PI3K,GPR30 [5],capable of inhibiting
same,inhibition of estrogen-mediated PI3K response,GPR30 [5],effectively blocked
same,reduction of E2-induced uterine epithelial proliferation,uterine epithelia,approximately 50%
